Reference: PubChem BioAssay (NCI)
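Growth conditions: 96-well plates. Treatment: test compound, 48 hours, 5 concentrations. Analysis: linear interpolation between bracketing concentrations; unreached endpoints set to highest concentration. GI50: concentration for 50% inhibition of growth. TGI: concentration producing complete growth inhibition.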

Columns and labels:
Experiment in all cases: inhibition of tumour cell growth, NCI panel, 48 h
HS 578T breast = test system: HS 578T breast
SF-268 CNS = test system: SF-268 CNS
K-562 leukemia = test system: K-562 leukemia
COLO 205 colon = test system: COLO 205 colon
DU-145 prostate = test system: DU-145 prostate
MDA-MB-468 breast = test system: MDA-MB-468 breast
RPMI-8226 leukemia = test system: RPMI-8226 leukemia
LOX IMVI melanoma = test system: LOX IMVI melanoma
OVCAR-3 ovarian = test system: OVCAR-3 ovarian
CAKI-1 renal = test system: CAKI-1 renal
BT-549 breast = test system: BT-549 breast
U251 CNS = test system: U251 CNS
MDA-MB-231 breast = test system: MDA-MB-231 breast
KM12 colon = test system: KM12 colon
SNB-75 CNS = test system: SNB-75 CNS
HOP-92 NSCLC = test system: HOP-92 NSCLC
HL-60(TB) leukemia = test system: HL-60(TB) leukemia
MALME-3M melanoma = test system: MALME-3M melanoma
CCRF-CEM leukemia = test system: CCRF-CEM leukemia
SN12C renal = test system: SN12C renal
NCI-H460 lung = test system: NCI-H460 lung
M14 melanoma = test system: M14 melanoma
HCC-2998 colon = test system: HCC-2998 colon
UACC-257 melanoma = test system: UACC-257 melanoma
PC-3 prostate = test system: PC-3 prostate
OVCAR-5 ovarian = test system: OVCAR-5 ovarian
OVCAR-8 ovarian = test system: OVCAR-8 ovarian
HCT-15 colon = test system: HCT-15 colon
RXF 393 renal = test system: RXF 393 renal
UO-31 renal = test system: UO-31 renal
SK-MEL-2 melanoma = test system: SK-MEL-2 melanoma
SK-OV-3 ovarian = test system: SK-OV-3 ovarian
NCI-H23 lung = test system: NCI-H23 lung
HOP-62 NSCLC = test system: HOP-62 NSCLC
MOLT-4 leukemia = test system: MOLT-4 leukemia
HCT-116 colon = test system: HCT-116 colon
HT29 colon = test system: HT29 colon
TK-10 renal = test system: TK-10 renal
NCI-H522 lung = test system: NCI-H522 lung
UACC-62 melanoma = test system: UACC-62 melanoma
A549 NSCLC = test system: A549 NSCLC
SK-MEL-5 melanoma = test system: SK-MEL-5 melanoma
NCI-H226 lung = test system: NCI-H226 lung
OVCAR-4 ovarian = test system: OVCAR-4 ovarian
SR leukemia = test system: SR leukemia
IGROV1 ovarian = test system: IGROV1 ovarian
EKVX NSCLC = test system: EKVX NSCLC
SW-620 colon = test system: SW-620 colon
SNB-19 CNS = test system: SNB-19 CNS
SK-MEL-28 melanoma = test system: SK-MEL-28 melanoma
SF-295 CNS = test system: SF-295 CNS
786-0 renal = test system: 786-0 renal
T-47D breast = test system: T-47D breast
MCF7 breast = test system: MCF7 breast
ACHN renal = test system: ACHN renal
A498 renal = test system: A498 renal
SF-539 CNS = test system: SF-539 CNS
MDA-MB-435 = test system: MDA-MB-435

CC(=O)Oc1ccccc1C(=O)[Se]C(=NC1CCCCC1)NC1CCCCC1 was tested, and the GI50 (HS 578T breast) was 2.05 µM, the TGI (HS 578T breast) was 5.37 µM and the GI50 (SF-268 CNS) was 2.33 µM. It also gave a TGI (SF-268 CNS) of 5.68 µM, a GI50 (K-562 leukemia) of 2.09 µM and a TGI (K-562 leukemia) of 5.21 µM. For the same compound, the GI50 (COLO 205 colon) was 1.95 µM, the TGI (COLO 205 colon) was 4.36 µM and the GI50 (DU-145 prostate) was 1.79 µM. It also gave a TGI (DU-145 prostate) of 3.28 µM, a GI50 (MDA-MB-468 breast) of 1.75 µM and a TGI (MDA-MB-468 breast) of 3.32 µM. The GI50 (RPMI-8226 leukemia) was 2.16 µM, the TGI (RPMI-8226 leukemia) was 5.39 µM and the GI50 (LOX IMVI melanoma) was 1.65 µM. It also gave a TGI (LOX IMVI melanoma) of 3.1 µM, a GI50 (OVCAR-3 ovarian) of 1.84 µM and a TGI (OVCAR-3 ovarian) of 3.39 µM. It also gave a GI50 (CAKI-1 renal) of 1.69 µM, a TGI (CAKI-1 renal) of 3.11 µM and a GI50 (BT-549 breast) of 1.64 µM. It also gave a TGI (BT-549 breast) of 3.07 µM, a GI50 (U251 CNS) of 1.72 µM and a TGI (U251 CNS) of 3.36 µM. The GI50 (MDA-MB-231 breast) was 1.85 µM, the TGI (MDA-MB-231 breast) was 3.58 µM and the GI50 (KM12 colon) was 1.83 µM. It also gave a TGI (KM12 colon) of 3.39 µM, a GI50 (SNB-75 CNS) of 1.37 µM and a TGI (SNB-75 CNS) of 2.78 µM. The GI50 (HOP-92 NSCLC) was 1.81 µM, the TGI (HOP-92 NSCLC) was 4.23 µM and the GI50 (HL-60(TB) leukemia) was 1.95 µM. For the same compound, the TGI (HL-60(TB) leukemia) was 4.71 µM, the GI50 (MALME-3M melanoma) was 1.73 µM and the TGI (MALME-3M melanoma) was 3.2 µM. It also gave a GI50 (CCRF-CEM leukemia) of 2.03 µM, a TGI (CCRF-CEM leukemia) of 5.05 µM and a GI50 (SN12C renal) of 1.73 µM. For the same compound, the TGI (SN12C renal) was 3.12 µM, the GI50 (NCI-H460 lung) was 1.98 µM and the TGI (NCI-H460 lung) was 4.37 µM. The GI50 (M14 melanoma) was 1.69 µM, the TGI (M14 melanoma) was 3.19 µM and the GI50 (HCC-2998 colon) was 1.72 µM. It also gave a TGI (HCC-2998 colon) of 3.12 µM, a GI50 (UACC-257 melanoma) of 1.68 µM and a TGI (UACC-257 melanoma) of 3.15 µM. The GI50 (PC-3 prostate) was 1.83 µM, the TGI (PC-3 prostate) was 3.62 µM and the GI50 (OVCAR-5 ovarian) was 1.69 µM. The TGI (OVCAR-5 ovarian) was 3.23 µM, the GI50 (OVCAR-8 ovarian) was 1.72 µM and the TGI (OVCAR-8 ovarian) was 3.14 µM. It also gave a GI50 (HCT-15 colon) of 1.78 µM, a TGI (HCT-15 colon) of 3.56 µM and a GI50 (RXF 393 renal) of 1.67 µM. For the same compound, the TGI (RXF 393 renal) was 3.04 µM, the GI50 (UO-31 renal) was 1.62 µM and the TGI (UO-31 renal) was 2.97 µM. For the same compound, the GI50 (SK-MEL-2 melanoma) was 1.64 µM, the TGI (SK-MEL-2 melanoma) was 3.15 µM and the GI50 (SK-OV-3 ovarian) was 1.69 µM. It also gave a TGI (SK-OV-3 ovarian) of 3.18 µM, a GI50 (NCI-H23 lung) of 1.66 µM and a TGI (NCI-H23 lung) of 3.2 µM. The GI50 (HOP-62 NSCLC) was 1.7 µM, the TGI (HOP-62 NSCLC) was 3.36 µM and the GI50 (MOLT-4 leukemia) was 2.39 µM. The TGI (MOLT-4 leukemia) was 5.56 µM, the GI50 (HCT-116 colon) was 1.9 µM and the TGI (HCT-116 colon) was 3.73 µM. It also gave a GI50 (HT29 colon) of 2.19 µM, a TGI (HT29 colon) of 5.48 µM and a GI50 (TK-10 renal) of 1.64 µM. The TGI (TK-10 renal) was 3.03 µM, the GI50 (NCI-H522 lung) was 1.56 µM and the TGI (NCI-H522 lung) was 3.03 µM. The GI50 (UACC-62 melanoma) was 1.67 µM, the TGI (UACC-62 melanoma) was 3.29 µM and the GI50 (A549 NSCLC) was 3.01 µM. It also gave a TGI (A549 NSCLC) of 10.6 µM, a GI50 (SK-MEL-5 melanoma) of 1.63 µM and a TGI (SK-MEL-5 melanoma) of 3.06 µM. It also gave a GI50 (NCI-H226 lung) of 1.6 µM, a TGI (NCI-H226 lung) of 3.21 µM and a GI50 (OVCAR-4 ovarian) of 1.74 µM. For the same compound, the TGI (OVCAR-4 ovarian) was 3.3 µM, the GI50 (SR leukemia) was 1.96 µM and the TGI (SR leukemia) was 4.71 µM. The GI50 (IGROV1 ovarian) was 1.76 µM, the TGI (IGROV1 ovarian) was 3.17 µM and the GI50 (EKVX NSCLC) was 1.65 µM. For the same compound, the TGI (EKVX NSCLC) was 3.06 µM, the GI50 (SW-620 colon) was 1.79 µM and the TGI (SW-620 colon) was 3.37 µM. It also gave a GI50 (SNB-19 CNS) of 1.67 µM, a TGI (SNB-19 CNS) of 3.1 µM and a GI50 (SK-MEL-28 melanoma) of 1.76 µM. For the same compound, the TGI (SK-MEL-28 melanoma) was 3.27 µM, the GI50 (SF-295 CNS) was 1.61 µM and the TGI (SF-295 CNS) was 3.16 µM. For the same compound, the GI50 (786-0 renal) was 1.76 µM, the TGI (786-0 renal) was 3.16 µM and the GI50 (T-47D breast) was 2 µM. The TGI (T-47D breast) was 5.17 µM, the GI50 (MCF7 breast) was 1.82 µM and the TGI (MCF7 breast) was 3.4 µM. For the same compound, the GI50 (ACHN renal) was 1.79 µM, the TGI (ACHN renal) was 3.27 µM and the GI50 (A498 renal) was 2.31 µM. For the same compound, the TGI (A498 renal) was 6.73 µM, the GI50 (SF-539 CNS) was 1.67 µM and the TGI (SF-539 CNS) was 3.04 µM. For the same compound, the GI50 (MDA-MB-435) was 1.79 µM and the TGI (MDA-MB-435) was 3.33 µM.
